C[N+](C)(C)CC(=O)[O-]
Settings | solubility (mole fraction)
in ethanol, 282.95 K | 0.0264
in ethanol, 288.15 K | 0.0298
in ethanol, 293.65 K | 0.0336
in ethanol, 298.45 K | 0.0372
in ethanol, 303.05 K | 0.041
in isopropanol, 283.45 K | 0.00458
in isopropanol, 288.65 K | 0.0054
in isopropanol, 293.15 K | 0.00622
in isopropanol, 298.45 K | 0.0071
in isopropanol, 303.35 K | 0.00823
in methanol, 283.15 K | 0.117
in methanol, 288.15 K | 0.121
in methanol, 293.55 K | 0.126
in methanol, 298.25 K | 0.131
in methanol, 303.2 K | 0.136
in n-butanol, 283.45 K | 0.00812
in n-butanol, 288.7 K | 0.00964
in n-butanol, 293.05 K | 0.0109
in n-butanol, 298.35 K | 0.0125
in n-butanol, 302.9 K | 0.0142
in n-propanol, 282.85 K | 0.0134
in n-propanol, 288.15 K | 0.0154
in n-propanol, 293.55 K | 0.0177
in n-propanol, 298.23 K | 0.02
in n-propanol, 303.45 K | 0.0225
in water, 283.15 K | 0.184
in water, 288.25 K | 0.189
in water, 293.2 K | 0.194
in water, 298.35 K | 0.2
in water, 303.25 K | 0.206
